Experimental data reported in publication PMC10999543, “Identification of kinase modulators as host-directed therapeutics against intracellular methicillin-resistant Staphylococcus aureus” (Frontiers in Cellular and Infection Microbiology, 2024).
Where two headings read alike, the source gives them in different places.

What was measured:
intracellular MRSA = format: cell-based, Staphylococcus aureus; conditions: for z-scoreMRSA+ mean: mean of 3 replicates; for z-scoreMRSA+ rep 1 / %GFP+ rep 1: replicate 1; for z-scoreMRSA+ rep 2 / %GFP+ rep 2: replicate 2; for z-scoreMRSA+ rep 3 / %GFP+ rep 3: replicate 3
Method in brief: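 HeLa, MRSA-GFP at MOI ~6.8, 1 h infection; gentamicin 30 µg/ml for 15 min; inhibitor plus gentamicin 5 µg/ml overnight, 37°C/5% CO2; triplicate plates; FACS %GFP+ and cell count; hit = z ≤ -2 MRSA+, z ≥ -3 count.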

HeLa cells = test: Compound screen by flow cytometry: HeLa cell count as surrogate readout of cell viability (z-scoreHeLa); format: cell-based, human; conditions: for z-scoreHeLa mean: mean of 3 replicates; for z-scoreHeLa rep 1 / cell count rep 1: replicate 1; for z-scoreHeLa rep 2 / cell count rep 2: replicate 2; for z-scoreHeLa rep 3 / cell count rep 3: replicate 3
Method in brief: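 HeLa cells were infected with GFP-MRSA (mean MOI 6.8 ± 4.6) for 1 h, and extracellular bacteria were killed with 30 µg/ml gentamicin. Cells were then incubated overnight with kinase inhibitors in 5 µg/ml gentamicin, in triplicate against DMSO controls. Flow-cytometric cell count served as a viability surrogate, expressed as a plate z-score.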

[1] = PKIS compound screen, Yes/No call
[2] = PKIS compound screen, Yes/No call (effect without cell death)
[3] = PKIS compounds raw data, MRSA-infected HeLa cells
[4] = PKIS compounds raw data, HeLa cell count
[5] = Yes/No: effect without cell death
[6] = compound screen, MRSA-infected HeLa cells
[7] = compound screen, HeLa cell count
[8] = PKIS compound screen raw data, MRSA-infected HeLa cells
[9] = PKIS compound screen raw data, HeLa cell count
[10] = PKIS compound screen, MRSA-infected HeLa cells
[11] = PKIS compound screen, HeLa cell count

## Cn1cc(C=C2C(=O)Nc3cccnc32)c2ccccc21 [GW441756X]
Intracellular MRSA; [1]
  effect: No
Intracellular MRSA; [2]
  hit: No
Intracellular MRSA; PKIS compound screen
  z-scoreMRSA+ mean: -0.68
  z-scoreMRSA+ rep 1: -0.28
  z-scoreMRSA+ rep 2: -0.47
  z-scoreMRSA+ rep 3: -1.30
Intracellular MRSA; [3]
  %GFP+ rep 1: 12.3%
  %GFP+ rep 2: 12.1%
  %GFP+ rep 3: 11.5%
HeLa cells; [1]
  cell death: No
HeLa cells; PKIS compound screen
  z-scoreHeLa mean: 0.63
  z-scoreHeLa rep 1: 0.06
  z-scoreHeLa rep 2: 0.32
  z-scoreHeLa rep 3: 1.49
HeLa cells; [4]
  cell count rep 1: 4844
  cell count rep 2: 4695
  cell count rep 3: 10080

## COc1ccccc1-c1cc(/C=C2\C(=O)Nc3ncc(Br)cc32)cc(Br)c1O [GW442130X]
Intracellular MRSA; [3]
  %GFP+ rep 1: 14.9%
  %GFP+ rep 2: 16.4%
  %GFP+ rep 3: 14.1%
Intracellular MRSA; Yes/No call from z-scoreMRSA+
  effect: No
Intracellular MRSA; [5]
  hit: No
Intracellular MRSA; [6]
  z-scoreMRSA+ mean: 0.33
  z-scoreMRSA+ rep 1: 0.55
  z-scoreMRSA+ rep 2: 0.97
  z-scoreMRSA+ rep 3: -0.53
HeLa cells; [4]
  cell count rep 1: 3648
  cell count rep 2: 4731
  cell count rep 3: 6669
HeLa cells; Yes/No call from z-scoreHeLa
  cell death: No
HeLa cells; [7]
  z-scoreHeLa mean: -0.27
  z-scoreHeLa rep 1: -1.02
  z-scoreHeLa rep 2: 0.35
  z-scoreHeLa rep 3: -0.14

## CS(=O)(=O)CCNCc1nc(-c2ccc3ncnc(Nc4ccc(F)c(Cl)c4)c3c2)cs1 [GW461104A]
Intracellular MRSA; [8]
  %GFP+ rep 1: 24.3%
  %GFP+ rep 2: 20.7%
  %GFP+ rep 3: 21.4%
Intracellular MRSA; Yes/No call from z-scoreMRSA+
  effect: No
Intracellular MRSA; [5]
  hit: No
Intracellular MRSA; [6]
  z-scoreMRSA+ mean: -0.31
  z-scoreMRSA+ rep 1: -0.23
  z-scoreMRSA+ rep 2: -0.46
  z-scoreMRSA+ rep 3: -0.24
HeLa cells; [9]
  cell count rep 1: 1413
  cell count rep 2: 957
  cell count rep 3: 819
HeLa cells; Yes/No call from z-scoreHeLa
  cell death: No
HeLa cells; [7]
  z-scoreHeLa mean: -2.50
  z-scoreHeLa rep 1: -2.12
  z-scoreHeLa rep 2: -2.57
  z-scoreHeLa rep 3: -2.79

## Cc1c(O)cccc1Nc1ccnc2ccc(C(F)(F)F)cc12 [GW466413A]
Intracellular MRSA; [8]
  %GFP+ rep 1: 22.3%
  %GFP+ rep 2: 22.8%
  %GFP+ rep 3: 19.9%
Intracellular MRSA; Yes/No call from z-scoreMRSA+
  effect: No
Intracellular MRSA; [5]
  hit: No
Intracellular MRSA; [6]
  z-scoreMRSA+ mean: -0.45
  z-scoreMRSA+ rep 1: -0.69
  z-scoreMRSA+ rep 2: 0.0454
  z-scoreMRSA+ rep 3: -0.69
HeLa cells; [9]
  cell count rep 1: 3244
  cell count rep 2: 2982
  cell count rep 3: 4313
HeLa cells; Yes/No call from z-scoreHeLa
  cell death: No
HeLa cells; [7]
  z-scoreHeLa mean: -0.80
  z-scoreHeLa rep 1: -0.80
  z-scoreHeLa rep 2: -1.02
  z-scoreHeLa rep 3: -0.58

## Cc1ccc(C(=O)Nc2ccc(Nc3ccnc4cc(-c5nccs5)ccc34)cc2O)cc1 [GW494702A]
Intracellular MRSA; [1]
  effect: No
Intracellular MRSA; [2]
  hit: No
Intracellular MRSA; PKIS compound screen
  z-scoreMRSA+ mean: -1.32
  z-scoreMRSA+ rep 1: -1.18
  z-scoreMRSA+ rep 2: -1.22
  z-scoreMRSA+ rep 3: -1.55
Intracellular MRSA; [3]
  %GFP+ rep 1: 21.0%
  %GFP+ rep 2: 19.7%
  %GFP+ rep 3: 18.9%
HeLa cells; [1]
  cell death: No
HeLa cells; PKIS compound screen
  z-scoreHeLa mean: 0.98
  z-scoreHeLa rep 1: 0.32
  z-scoreHeLa rep 2: 1.13
  z-scoreHeLa rep 3: 1.50
HeLa cells; [4]
  cell count rep 1: 6577
  cell count rep 2: 7707
  cell count rep 3: 7965

## Cc1cc(NCC(c2ccccc2)c2ccccc2)nc(NCc2ccc(C(F)(F)F)cc2)n1 [GW497681X]
Intracellular MRSA; [8]
  %GFP+ rep 1: 20.1%
  %GFP+ rep 2: 18.7%
  %GFP+ rep 3: 19.8%
Intracellular MRSA; [10]
  z-scoreMRSA+ mean: -0.08
  z-scoreMRSA+ rep 1: 0.35
  z-scoreMRSA+ rep 2: -0.19
  z-scoreMRSA+ rep 3: -0.39
Intracellular MRSA; [1]
  effect: No
Intracellular MRSA; [2]
  hit: No
Intracellular MRSA; PKIS compound screen, Yes/No call on z-scoreMRSA+
  effect: No
Intracellular MRSA; PKIS compound screen
  z-scoreMRSA+ mean: -1.09
  z-scoreMRSA+ rep 1: -0.81
  z-scoreMRSA+ rep 2: -1.24
  z-scoreMRSA+ rep 3: -1.24
Intracellular MRSA; [3]
  %GFP+ rep 1: 22.9%
  %GFP+ rep 2: 19.6%
  %GFP+ rep 3: 20.6%
HeLa cells; [9]
  cell count rep 1: 17665
  cell count rep 2: 6230
  cell count rep 3: 5782
HeLa cells; [11]
  z-scoreHeLa mean: -2.65
  z-scoreHeLa rep 1: -2.12
  z-scoreHeLa rep 2: -3.27
  z-scoreHeLa rep 3: -2.56
HeLa cells; [1]
  cell death: No
HeLa cells; PKIS compound screen, Yes/No call on z-scoreHeLa
  cell death: No
HeLa cells; PKIS compound screen
  z-scoreHeLa mean: -2.45
  z-scoreHeLa rep 1: -2.37
  z-scoreHeLa rep 2: -3.07
  z-scoreHeLa rep 3: -1.91
HeLa cells; [4]
  cell count rep 1: 2106
  cell count rep 2: 1381
  cell count rep 3: 2577

## COc1cc(C=NNc2ncnc3c2cnn3-c2ccccc2)ccc1O [GW513184X]
Intracellular MRSA; [3]
  %GFP+ rep 1: 11.7%
  %GFP+ rep 2: 13.3%
  %GFP+ rep 3: 13.0%
Intracellular MRSA; Yes/No call from z-scoreMRSA+
  effect: No
Intracellular MRSA; [5]
  hit: No
Intracellular MRSA; [6]
  z-scoreMRSA+ mean: -0.46
  z-scoreMRSA+ rep 1: -0.47
  z-scoreMRSA+ rep 2: -0.0654
  z-scoreMRSA+ rep 3: -0.85
HeLa cells; [4]
  cell count rep 1: 3697
  cell count rep 2: 5698
  cell count rep 3: 7463
HeLa cells; Yes/No call from z-scoreHeLa
  cell death: No
HeLa cells; [7]
  z-scoreHeLa mean: 0.11
  z-scoreHeLa rep 1: -0.98
  z-scoreHeLa rep 2: 1.08
  z-scoreHeLa rep 3: 0.24

## Fc1cc(Cl)ccc1Nc1ccnc2cc(I)ccc12 [GW551191X]
Intracellular MRSA; [8]
  %GFP+ rep 1: 27.7%
  %GFP+ rep 2: 23.2%
  %GFP+ rep 3: 23.8%
Intracellular MRSA; Yes/No call from z-scoreMRSA+
  effect: No
Intracellular MRSA; [5]
  hit: No
Intracellular MRSA; [6]
  z-scoreMRSA+ mean: 0.40
  z-scoreMRSA+ rep 1: 0.57
  z-scoreMRSA+ rep 2: 0.14
  z-scoreMRSA+ rep 3: 0.48
HeLa cells; [9]
  cell count rep 1: 6255
  cell count rep 2: 4849
  cell count rep 3: 6828
HeLa cells; Yes/No call from z-scoreHeLa
  cell death: No
HeLa cells; [7]
  z-scoreHeLa mean: 0.93
  z-scoreHeLa rep 1: 1.37
  z-scoreHeLa rep 2: 0.42
  z-scoreHeLa rep 3: 1.00
